From US20070117743A1, “New antitumoral compounds” (priority 2003, published 2007)

Key:
Type in all cases: cell-based, human
[1] = test system: PANC-1; assay: SRB colorimetric assay of cell growth and viability, PANC-1; settings: 48 hours exposure, SRB; for CC50: read-out: LC50 PANC-1
[2] = test system: LoVo; assay: SRB colorimetric assay of cell growth and viability, LoVo; settings: 48 hours exposure, SRB; for CC50: read-out: LC50 LOVO
[3] = test system: LoVo-Dox; assay: SRB colorimetric assay of cell growth and viability, LoVo-Dox; settings: 48 hours exposure, SRB; for CC50: read-out: LC50 LOVO-DOX
Procedure, shortened: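 Sulforhodamine B assay run after 48 h of continuous drug contact; cells seeded 5×10^3/well in RPMI 1640 10% FBS, attached 18 h. Triplicate OD490 values give cytostatic (TGI), cytotoxic (LC) and GI parameters.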

[4] = test system: DU-145; assay: SRB colorimetric assay of cell growth and viability, DU-145; settings: 48 hours exposure, SRB
[5] = test system: HeLa; assay: SRB colorimetric assay of cell growth and viability, HeLa; settings: 48 hours exposure, SRB; for CC50: read-out: LC50 HELA
[6] = test system: HT-29; assay: SRB colorimetric assay of cell growth and viability, HT-29; settings: 48 hours exposure, SRB; for GI50: read-out: GI50 HT-29; for CC50: read-out: LC50 HT-29
[7] = test system: A-549; assay: SRB colorimetric assay of cell growth and viability, A-549; settings: 48 hours exposure, SRB; for GI50: read-out: GI50 A-549; for CC50: read-out: LC50 A-549
[8] = test system: SK-MEL-28; assay: SRB colorimetric assay of cell growth and viability, SK-MEL-28; settings: 48 hours exposure, SRB; for CC50: read-out: LC50 MEL-28
[9] = test system: SK-BR-3; assay: SRB colorimetric assay of cell growth and viability, SK-BR-3; settings: 48 hours exposure, SRB
[10] = test system: HeLa-APL; assay: SRB colorimetric assay of cell growth and viability, HeLa-APL; settings: 48 hours exposure, SRB; for CC50: read-out: LC50 HELA-APL
[11] = test system: IGROV-1; assay: SRB colorimetric assay of cell growth and viability, IGROV-1; settings: 48 hours exposure, SRB
[12] = test system: LNCaP; assay: SRB colorimetric assay of cell growth and viability, LNCaP; settings: 48 hours exposure, SRB; for GI50: read-out: GI50 LN-caP; for CC50: read-out: LC50 LN-caP
[13] = test system: IGROV-ET; assay: SRB colorimetric assay of cell growth and viability, IGROV-ET; settings: 48 hours exposure, SRB; for CC50: read-out: LC50 IGROV-ET

Row | Structure (SMILES) | GI50 [1] | TGI PANC-1 [1] | CC50 [1] | GI50 [2] | TGI LOVO [2] | CC50 [2] | GI50 [3] | TGI LOVO-DOX [3] | CC50 [3] | GI50 [4] | LC50 (concentration causing 50% net cell kill) [4] | TGI DU-145 [4] | GI50 [5] | TGI HELA [5] | CC50 [5] | TGI HT-29 [6] | GI50 [6] | CC50 [6] | TGI A-549 [7] | GI50 [7] | other results
1 | C/C=C1\NC(=O)[C@H](Cc2ccc(Cl)c(Cl)c2)NC(=O)[C@@H](C(C)C)NC(=O)[C@@H]([C@@H](C)CC)NC(=O)[C@H](NC(=O)[C@H](NC(=O)[C@H](CCCN)NC(=O)[C@H]2CCCN2C(=O)[C@H](NC(=O)[C@@H](NC(=O)[C@@H](NC(=O)[C@H](NC(=O)CC[C@@H](C)CC)C(C)C)[C@@H](C)O)C(C)C)C(C)C)[C@@H](C)CC)[C@@H](C)OC(=O)[C@H](C(C)C)NC1=O [Compound 70, [Phe(3,4-Cl2)^3, (4S)-MeHex^14]-KF] | 1000 nM | 1.85E−06 Molar | 3420 nM | 68.5 nM | 4.11E−07 Molar | 1730 nM | 28.5 nM | 8.15E−08 Molar | 612 nM | 142 nM | 465 nM | 2.57E−07 Molar | 125 nM | 2.22E−07 Molar | 397 nM | 2.13E−07 Molar | 111 nM | 412 nM | 3.32E−07 Molar | 183 nM | CC50 [7]: 604 nM; GI50 [8]: 120 nM; TGI MEL-28 [8]: 2.39E−07 Molar; CC50 [8]: 475 nM; GI50 [9]: 52.8 nM; LC50 [9]: 299 nM; TGI SK-BR-3 [9]: 1.18E−08 Molar; GI50 [10]: 259 nM; TGI HELA-APL [10]: 7.63E−07 Molar; CC50 [10]: 2240 nM; GI50 [11]: 182 nM; LC50 (concentration causing 50% net cell killing) [11]: 487 nM; TGI IGROV [11]: 2.97E−07 Molar; TGI LN-caP [12]: 2.08E−07 Molar; GI50 [12]: 66.6 nM; CC50 [12]: 6470 nM; GI50 [13]: 112 nM; TGI IGROV-ET [13]: 2.09E−07 Molar; CC50 [13]: 387 nM
2 | C/C=C1\NC(=O)[C@H](Cc2c(F)c(F)c(F)c(F)c2F)NC(=O)[C@@H](C(C)C)NC(=O)[C@@H]([C@@H](C)CC)NC(=O)[C@H](NC(=O)[C@H](NC(=O)[C@H](CCCN)NC(=O)[C@H]2CCCN2C(=O)[C@H](NC(=O)[C@@H](NC(=O)[C@@H](NC(=O)[C@H](NC(=O)CC[C@@H](C)CC)C(C)C)[C@@H](C)O)C(C)C)C(C)C)[C@@H](C)CC)[C@@H](C)OC(=O)[C@H](C(C)C)NC1=O [Compound 71, [Phe(F5)^3, (4S)-MeHex^14]-KF] | 1560 nM | 4.41E−06 Molar | 6380 nM | 166 nM | 2.77E−07 Molar | 462 nM | 184 nM | 2.90E−07 Molar | 456 nM | 1220 nM | 3640 nM | 2.11E−06 Molar | 836 nM | 1.63E−06 Molar | 3160 nM | 9.82E−07 Molar | 330 nM | 267 nM | 2.62E−06 Molar | 1750 nM | CC50 [7]: 3920 nM; GI50 [8]: 1520 nM; TGI MEL-28 [8]: 2.40E−06 Molar; CC50 [8]: 3800 nM; GI50 [9]: 228 nM; LC50 [9]: 554 nM; TGI SK-BR-3 [9]: 3.56E−07 Molar; GI50 [10]: 1330 nM; TGI HELA-APL [10]: 2.22E−06 Molar; CC50 [10]: 3700 nM; GI50 [11]: 526 nM; LC50 (concentration causing 50% net cell killing) [11]: 2720 nM; TGI IGROV [11]: 1.21E−06 Molar; TGI LN-caP [12]: 1.12E−06 Molar; GI50 [12]: 394 nM; CC50 [12]: 2700 nM; GI50 [13]: 443 nM; TGI IGROV-ET [13]: 5.35E−07 Molar; CC50 [13]: 848 nM
